Results: US11458153B2, “Drug delivery composition comprising a self-assembled gelator” (The Brigham and Women's Hospital, Inc., priority 2008, dated 2022)

Experiments:
[1] = test system: arthritis bearing mouse joints (ankles and knees); conditions: direct injection into joints, sectioned after 8 days, fluorescence microscopy
From the text: In vivo: DiD encapsulated nanofiber gels (salicin-deconate nanofibers, prepared as above), were directly injected into the arthritis bearing mouse joints (ankles and knees) to examine the retention of nanofibers within the joints. After 8 days, ankles and knees were sectioned and imaged under fluorescence microscopy to examine the presence of nanofibers.
In vivo: DiD encapsulated nanofiber gels were directly injected into the arthritis bearing mouse joints (ankles and knees) to examine the retention of nanofibers within the joints. After 8 days, ankles and knees were sectioned and imaged under fluorescence microscopy to examine the presence of nanofibers.

[2] = Dye-encapsulated nanofibers in absence of synovial fluid (PBS); type: physicochemical; conditions: DiD-encapsulated fibers in PBS
From the text: In vitro. […] Fibers were isolated by repetitive centrifugation and washing steps.

[3] = DiD-encapsulated fibers, synovial fluid, 37° C.
Procedure: In vitro. […] Fibers were incubated with synovial fluid at 37° C. that was extracted from human arthritic joints (inflamed).

[4] = Gelation ability of polyol amphiphiles in water and organic solvents; type: physicochemical; set-up: key: G = gel; P = precipitate; S = soluble; I = insoluble; conditions: solvent CHCl3
From the text: (§1) Examples of suitable solvents include water, salt water (such as a NaCl solution), different […] such as TRISZMA buffers, and alkaline and acidic solutions. In addition to water-based solutions, the compounds can gel various aromatic and non-aromatic organic solvents, such as benzene, toluene, hexane, and acetonitrile. All the gels obtained in Table 7 were thermally reversible. Above their gelation temperature, the gels dissolved in solvent, but could be returned to their original gel state upon cooling.

[5] = as above; type: physicochemical; set-up: key: G = stable gel at room temperature; P = precipitate; Sol = soluble
From the text: as §1

presence of nanofibers in joints [1]	stability of nanofibers in absence of synovial fluid [2]	period of slow degradation of fibers by enzymes [3] [days]	SMILES	Gelation ability [4]	Gelation ability ([5]; solvent 1,4-dioxane)	Gelation ability ([5]; solvent CCl4)	Gelation ability ([5]; solvent CH3CN)	Gelation ability ([5]; solvent DMSO)	Gelation ability ([5]; solvent NaCl (40 mM))	Gelation ability ([5]; solvent TRIS (50 mM))	Gelation ability ([5]; solvent acetone)	Gelation ability ([5]; solvent acidic (pH < 3))	Gelation ability ([5]; solvent basic (pH > 12))	Gelation ability ([5]; solvent benzene)	Gelation ability ([5]; solvent cyclohexane)	Gelation ability ([5]; solvent toluene)	Gelation ability ([5]; solvent water)
localized within the joints	stable (in PBS) for months	15	CCCCCCCCCC(=O)OC[C@H]1O[C@@H](Oc2ccccc2CO)[C@H](O)[C@@H](O)[C@@H]1O [Salicin-deconate]	–	–	–	–	–	–	–	–	–	–	–	–	–	–
–	–	–	CCCCCCCCCCCC(=O)NC(CO)(CO)CO [polyol-12]	P	Sol	G	G	Sol	G	G	Sol	G	G	G	G	G	G
